From US11925612B2, “Bactericidal and virucidal pharmaceutical composition” (Quimica Luar SRL, priority 2015, dated 2024)

System: P. aeruginosa
Experiment: Bactericidal test: CFU count after incubation in PBS buffer
Assay type: cell-based, Pseudomonas aeruginosa
Conditions: for P. aeruginosa count (UFC/mL ± 10) As a function of treatment time: 37° C., Example 6; for Colony count (UFC/mL ± 10) Pseudomonas: Example 9; for Colony count (UFC/mL ± 10) P. aeruginosa: 4-hour at 37° C., control 3,000,000, Example 15

CC(C)Cc1ccc(C(C)C(=O)O)cc1.[Na] (stereo not drawn) [IBU-Na, SODIUM IBUPROFEN]
P. aeruginosa (UFC/mL ± 10) (IBU 10 mM, 4 h at 37° C., control 1,700,000, Example 4): 760,000 UFC/mL | P. aeruginosa (UFC/mL ± 10) (IBU 20 mM y NaCl (1M), preincubated 1 hour with human Albumin 5 mg/mL, 4 hours at 37° C., control 1,000,000, Example 16): 1500 UFC/mL | P. aeruginosa (UFC/mL ± 10) (IBU 20 mM, 4 h at 37° C., control 1,700,000, Example 4): 300,000 UFC/mL | P. aeruginosa (UFC/mL ± 10) (IBU 50 mM, 4 h at 37° C., control 1,700,000, Example 4): 50 UFC/mL | P. aeruginosa count (UFC/mL ± 10) As a function of treatment time (IBU-Na 1 mM, 1 hour, control 2,000,000): 2,000,000 UFC/mL | P. aeruginosa count (UFC/mL ± 10) As a function of treatment time (IBU-Na 1 mM, 4 hours, control 2,000,000): 2,000,000 UFC/mL | P. aeruginosa count (UFC/mL ± 10) As a function of treatment time (IBU-Na 1 mM, Overnight (O.N.), control 2,000,000): 2,000,000 UFC/mL | P. aeruginosa (UFC/mL ± 10) (IBU-Na 1 mM, Population A (control 200,000), 4 h at 37° C., Example 5): 200,000 UFC/mL | P. aeruginosa (UFC/mL ± 10) (IBU-Na 1 mM, Population B (control 20,000), 4 h at 37° C., Example 5): 20,000 UFC/mL | P. aeruginosa (UFC/mL ± 10) (IBU-Na 1 mM, Population C (control 2,000), 4 h at 37° C., Example 5): 2,000 UFC/mL | P. aeruginosa count (UFC/mL ± 10) As a function of treatment time (IBU-Na 2.5 mM, 1 hour, control 2,000,000): 2,000,000 UFC/mL | P. aeruginosa count (UFC/mL ± 10) As a function of treatment time (IBU-Na 2.5 mM, Overnight (O.N.), control 2,000,000): 2,000,000 UFC/mL | P. aeruginosa (UFC/mL ± 10) (IBU-Na 5 mM + ClNa (1M), 1 hour, 37° C. pH 6.5, control 800,000, Example 13): 16,000 UFC/mL | P. aeruginosa (UFC/mL ± 10) (IBU-Na 5 mM + ClNa (1M), 2 hours, 37° C. pH 6.5, control 800,000, Example 13): 13,000 UFC/mL | P. aeruginosa (UFC/mL ± 10) (IBU-Na 5 mM + ClNa (1M), 4 hours, 37° C. pH 6.5, control 800,000, Example 13): 8,500 UFC/mL | Colony count (UFC/mL ± 10) Pseudomonas (IBU-Na 5 mM, 4 hours at 37° C., control 1,700,000): 1,700,000 UFC/mL | P. aeruginosa (UFC/mL ± 10) (IBU-Na 5 mM, Population A (control 200,000), 4 h at 37° C., Example 5): 150,000 UFC/mL | P. aeruginosa (UFC/mL ± 10) (IBU-Na 5 mM, Population B (control 20,000), 4 h at 37° C., Example 5): 17,000 UFC/mL | P. aeruginosa (UFC/mL ± 10) (IBU-Na 10 mM + ClNa (1M), 1 hour, 37° C. pH 6.5, control 800,000, Example 13): 30 UFC/mL | P. aeruginosa (UFC/mL ± 10) (IBU-Na 10 mM + ClNa (1M), 2 hours, 37° C. pH 6.5, control 800,000, Example 13): 30 UFC/mL | Colony count (UFC/mL ± 10) Pseudomonas (IBU-Na 10 mM, 4 hours at 37° C., control 1,700,000): 760,000 UFC/mL | P. aeruginosa count (UFC/mL ± 10) As a function of treatment time (IBU-Na 10 mM, Overnight (O.N.), control 2,000,000): 900,000 UFC/mL | P. aeruginosa (UFC/mL ± 10) (IBU-Na 10 mM, Population B (control 20,000), 4 h at 37° C., Example 5): 3,500 UFC/mL | P. aeruginosa (UFC/mL ± 10) (IBU-Na 10 mM, Population C (control 2,000), 4 h at 37° C., Example 5): 800 UFC/mL | P. aeruginosa (UFC/mL ± 10) (IBU-Na 10 mM, Without ionic strength, 4 hours at 37° C., control 1,700,000, Example 12): 760,000 UFC/mL | Colony count (UFC/mL ± 10) P. aeruginosa (IBU-Na 12.5 mM + ClNa (1M)): 250 UFC/mL | P. aeruginosa (UFC/mL ± 10) (IBU-Na 20 mM, Population A (control 200,000), 4 h at 37° C., Example 5): 20,000 UFC/mL | P. aeruginosa (UFC/mL ± 10) (IBU-Na 20 mM, Population B (control 20,000), 4 h at 37° C., Example 5): 400 UFC/mL | P. aeruginosa (UFC/mL ± 10) (IBU-Na 20 mM, Population C (control 2,000), 4 h at 37° C., Example 5): 50 UFC/mL | Colony count (UFC/mL ± 10) P. aeruginosa (IBU-Na 25 mM + ClNa (1M)): 10 UFC/mL | P. aeruginosa count (UFC/mL ± 10) As a function of treatment time (IBU-Na 25 mM, 1 hour, control 2,000,000): 500,000 UFC/mL | Colony count (UFC/mL ± 10) Pseudomonas (IBU-Na 25 mM, 4 hours at 37° C., control 1,700,000): 200,000 UFC/mL | P. aeruginosa count (UFC/mL ± 10) As a function of treatment time (IBU-Na 25 mM, 4 hours, control 2,000,000): 250,000 UFC/mL | P. aeruginosa (UFC/mL ± 10) (IBU-Na 25 mM, Without ionic strength, 4 hours at 37° C., control 1,700,000, Example 12): 200,000 UFC/mL | P. aeruginosa (UFC/mL ± 10) (IBU-Na 30 mM, Population A (control 200,000), 4 h at 37° C., Example 5): 500 UFC/mL | P. aeruginosa (UFC/mL ± 10) (IBU-Na 30 mM, Population B (control 20,000), 4 h at 37° C., Example 5): 40 UFC/mL | P. aeruginosa (UFC/mL ± 10) (IBU-Na 40 mM, Population A (control 200,000), 4 h at 37° C., Example 5): 100 UFC/mL | Colony count (UFC/mL ± 10) P. aeruginosa (IBU-Na 50 mM + ClNa (1M)): 10 UFC/mL | Colony count (UFC/mL ± 10) (IBU-Na 50 mM, 4-hour contact at 37° C., control 2,000,000, Example 8): 100 UFC/mL
